Test results: publication PMC9154793, “Design, synthesis, and biological evaluation of triazole-pyrimidine-methylbenzonitrile derivatives as dual A2A/A2B adenosine receptor antagonists” (Journal of Enzyme Inhibition and Medicinal Chemistry, 2022)
Like-named read-outs stand apart in the source and are kept apart here.

Key:
[1] = In vivo pharmacokinetics study in Balb/c mice; details: for Cmax / Tmax / half-life / AUC(0-inf) / bioavailability / AUC(0-t): female, Balb/c, mouse, plasma; for bioavailability: oral 30 mg/kg vs i.v. 10 mg/kg, read-out: F (absolute bioavailability)
Description: The in vivo pharmacokinetic (PK) profiles of compounds 7f and 7i were examined in […] Balb/c mice (Table 5 and Figure 5). […] After the intravenous (i.v.) administration of 10 mg/kg, the maximum plasma concentration of compounds 7f and 7i were 5010.30 µg/l at 0.25 h and 7266.60 µg/l at 0.25 h, respectively. […] These PK parameters can be used to evaluate the drug-like properties of compounds 7f and 7i, so as to clarify their effectiveness and obtain better clinical treatment effects.
The absolute bioavailabilities of synthetic compounds (7f, 7i) were studied in female Bal b/c mice (Jinan Pengyue Experimental Animal Breeding Co., Ltd.). The mice were divided into four groups each having six mice and were collected at crossover time points, with three mice at each point. Pharmacokinetics (PK) was evaluated after a single dose of 30 mg/kg oral gavage (Oral) or 10 mg/kg intravenous (i.v.) administration. After oral administration and i.v. injection, blood samples were obtained from the suborbital veniplex at pre, 15 min, 30 min, 1 h, 2 h, 4 h, 6 h, 8 h, 12 h, 24 h (Oral) and pre, 5 min, 15 min, 30 min, 1 h, 2 h, 4 h, 6 h, 8 h, 12 h, 24 h (i.v.). Approximately 200 μl of blood was collected at each time point. All blood samples were put into plastic microcentrifuge tubes containing Heparin-Na as an anticoagulant. Microcentrifuge tubes with blood samples and anticoagulant were inverted several times for proper mixing of the tube contents to centrifugation for plasma. Plasma samples will be centrifuged at 12,000 rpm for 8 min at 4 °C to obtain the supernatant. The serum sample (25 μl) was treated with acetonitrile (100 μl), after which the mixture was vortex-mixed for 8 min and centrifuged at 10,000 rpm for 10 min at 4 °C. The supernatant layer was collected and then 50 μl of supernatant was injected for the UPLC-MS/MS analysis (details of the analytical method see Supporting information). […]
9. Analytical method of pharmacokinetics assay
Animal experiments were performed according to the institutional ethical guidelines on animal care and approved by the Institute Animal Care and Use Committee at Binzhou […]
Female Bal b/c mice (sourced from Jinan Pengyue Experimental Animal Breeding Co., Ltd.) approximately 6-8 weeks of age, and a weight of approximately 20-30 g. All of the mice were permitted with free access to standard pelleted food and water ad libitum and were kept in clean cages under controlled conditions (light/ dark cycle of 12 h, 60 ± 2% humidity, and 25 ± 1 °C). Before the day of administration, […] were fasted for 12 h but allowed water ad libitum.
9.2 Design of bioavailability study
The mice were divided into 4 groups each having six mice and were collected at crossover time points, with three mice at each point. Pharmacokinetics (PK) was […]
evaluated after a single dose of 30 mg/kg oral gavage (Oral) and 10 mg/kg intravenous […]
(i.v.) administration. The blood samples were obtained from the suborbital veniplex.
Each cohort had three mice, and plasma was collected at pre, 5 min, 15 min, 30 min, 1 […]
h, 2 h, 4 h, 6 h, 8 h, 12 h, and 24 h post dose for intravenous administration. Plasma […]
was collected at pre, 15 min, 30 min, 1 h, 2 h, 4 h, 6 h, 8 h, 12 h, and 24 h post dose for […]
9.3 Samples collection and quantitative analysis
Approximately 200 μL of blood was collected at each time point. All blood samples […]
were put into plastic microcentrifuge tubes containing Heparin-Na as anticoagulant. […]
microcentrifuge tubes with blood samples and anticoagulant were inverted several […]
times for proper mixing of the tube contents to centrifugation for plasma. Plasma […]
samples will be centrifuged at 12000 rpm for 8 min at 4 ℃ to obtain the supernatant.
The serum sample (25 μL) was treated with acetonitrile (100 μL), after which the […]
mixture was vortex-mixed for 8 min and centrifuged at 10000 rpm for 10 min at 4 ℃.
The supernatant layer was collected and then 50 μL of supernatant was injected for the […]
9.4 Chromatography and mass spectrometry conditions […]

human A2A AR = human A2A AR (Homo sapiens, UniProt P29274); test: cAMP functional assay in CHO-K1/ADORA2A/Gα15 cells (NECA-stimulated, HTRF); type: cell-based; details: for IC50: CHO cells expressing hA2A AR, read-out: cAMP IC50 hA2A AR; for IC50 / inhibition at 0.01 µM / inhibition at 0.1 µM / inhibition at 1 µM: mean ± SEM; for inhibition at 0.01 µM / inhibition at 0.1 µM / inhibition at 1 µM: CHO-K1, relative to ZM241385 at 1 μM; for inhibition at 0.01 µM: compound at 10 nM, read-out: hA2A AR (%) inhibition of cAMP, 10 nM; for inhibition at 0.1 µM: compound at 100 nM, read-out: hA2A AR (%) inhibition of cAMP, 100 nM; for inhibition at 1 µM: compound at 1000 nM, read-out: hA2A AR (%) inhibition of cAMP, 1000 nM;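 for all read-outs here: inhibition of NECA-driven intracellular cAMP build-up in the A2A-expressing cells, quantified with cAMP-d2 plus Eu3+-labelled anti-cAMP detection reagent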
Description: In the cAMP assay, CHO-K1/ADORA2A/Gα15 cells expressing human A2A AR and CHO-K1/ADORA2b/Gα15 cells expressing human A2B AR were activated by 5′-(N-ethylcarboxamido)adenosine (NECA) and triggered the accumulation of intracellular cAMP concentration.
CHO-K1/ADORA2A/Gα15 cells expressing human A2A AR and CHO-K1/ADORA2b/Gα15 cells expressing human A2B AR were both constructed by Genscript Biotech Corporation. […] The test stock solutions were diluted with different gradients for use. The procedure was exemplified by the cAMP functional assay on the A2A receptor: 10,000 cells/well of CHO-K1/ADORA2A/Gα15 were seeded in a 384-well plate in 20 μl of assay buffer. […] Then, 10 μl of detection reagent (cAMP-d2 and anti-cAMP-Eu3+) was added into each well of the plate and incubated at room temperature for 1 h.

[2] = iv, i.v. 10 mg/kg, read-out: Cmax i.v.
[3] = oral 30 mg/kg, read-out: Cmax Oral
[4] = iv, i.v. 10 mg/kg, mean n = 3, read-out: t1/2 i.v. (converted)
[5] = iv, i.v. 10 mg/kg, read-out: AUC0→∞ i.v.
[6] = oral 30 mg/kg, mean n = 3, read-out: t1/2 Oral (converted)
[7] = oral 30 mg/kg, read-out: AUC0→t Oral
[8] = oral 30 mg/kg, read-out: AUC0→∞ Oral
[9] = po, 30 mg/kg, oral 30 mg/kg, read-out: tmax Oral

human A2A AR, sequence (P29274 whole entry): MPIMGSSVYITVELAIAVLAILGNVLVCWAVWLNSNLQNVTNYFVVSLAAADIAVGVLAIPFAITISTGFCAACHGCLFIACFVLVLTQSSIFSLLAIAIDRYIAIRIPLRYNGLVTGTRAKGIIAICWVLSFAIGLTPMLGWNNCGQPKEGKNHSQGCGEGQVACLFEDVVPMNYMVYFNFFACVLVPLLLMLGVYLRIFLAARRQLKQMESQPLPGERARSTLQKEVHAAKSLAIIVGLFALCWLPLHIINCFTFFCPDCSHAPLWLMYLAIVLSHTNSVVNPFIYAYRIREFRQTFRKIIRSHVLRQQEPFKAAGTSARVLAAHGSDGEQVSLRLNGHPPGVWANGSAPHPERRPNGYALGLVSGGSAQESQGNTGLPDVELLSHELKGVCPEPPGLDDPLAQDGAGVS

Row | Cmax [1, 2] [ng/mL] | Cmax [1, 3] [ng/mL] | half-life [1, 4] [h] | AUC(0-inf) [1, 5] [ng·h/mL] | bioavailability [1] [%] | half-life [1, 6] [h] | AUC(0-t) [1, 7] [ng·h/mL] | AUC(0-inf) [1, 8] [ng·h/mL] | Tmax [1, 9] [h] | AUC0→t/Dose i.v. ([1]; i.v. 10 mg/kg) | AUC0→∞/Dose i.v. ([1]; i.v. 10 mg/kg) | Cmax/Dose i.v. ([1]; i.v. 10 mg/kg) | AUC0→t/Dose Oral ([1]; oral 30 mg/kg) | AUC0→∞/Dose Oral ([1]; oral 30 mg/kg) | Cmax/Dose Oral ([1]; oral 30 mg/kg) | melting point [°C] | IC50 (human A2A AR) [nM] | inhibition at 0.01 µM (human A2A AR) [%] | inhibition at 0.1 µM (human A2A AR) [%] | inhibition at 1 µM (human A2A AR) [%] | Compound | also measured
1 | 5010 | 7160 | 2.67 | 17300 | 87.7 | 4.12 | 45500 | 46200 | 2 | 1728.68 (µg/L*h)/(mg/kg) | 1731.60 (µg/L*h)/(mg/kg) | 501.03 (µg/L)/(mg/kg) | 1516.35 (µg/L*h)/(mg/kg) | 1541.08 (µg/L*h)/(mg/kg) | 238.76 (µg/L)/(mg/kg) | 147 to 148 | 24.04 ± 0.06 | 54.9 ± 1.19 | 84.2 ± 2.94 | 92.41 ± 0.43 | Cc1c(C#N)cccc1-c1cc(-c2cn(Cc3cccc(C#N)n3)nn2)nc(N)n1 [Compound 7f, 6-((4-(2-Amino-6-(3-cyano-2-methylphenyl)pyrimidin-4-yl)-1H-1,2,3-triazol-1-yl)methyl)picolinonitrile] | Tmax ([1]; iv, 10 mg/kg, i.v. 10 mg/kg, read-out: tmax i.v.): 0.25 h; fold less active than compound 7i (cAMP IC50, A2A receptor) (human A2A AR; ratio of cAMP IC50 values vs 7i): 4 fold
2 | 7270 | 1010 | 2.19 | 4480 | 58.8 | 4.82 | 7900 | 8150 | 1 | 448.46 (µg/L*h)/(mg/kg) | 448.48 (µg/L*h)/(mg/kg) | 726.66 (µg/L)/(mg/kg) | 263.50 (µg/L*h)/(mg/kg) | 271.51 (µg/L*h)/(mg/kg) | 33.58 (µg/L)/(mg/kg) | 151 to 152 | 6.007 ± 0.05 | 32.7 ± 1.8 | 95.9 ± 3.36 | 103 ± 2.82 | Cc1c(C#N)cccc1-c1cc(-c2cn(Cc3cccc(C(N)=O)n3)nn2)nc(N)n1 [Compound 7i, 6-((4-(2-Amino-6-(3-cyano-2-methylphenyl)pyrimidin-4-yl)-1H-1,2,3-triazol-1-yl)methyl)picolinamide] | AUC(0-t) ([1]; iv, i.v. 10 mg/kg, read-out: AUC0→t i.v.): 4480 ng·h/mL
